According to ChEMBL document CHEMBL5370578, “Discovery of a potent, orally available tricyclic derivative as a novel BRD4 inhibitor for melanoma” (Bioorg Med Chem, 2023):

How the values were obtained:
[1] = Half life in Slc:ICR mouse at 0.5 mg/kg, iv measured for 4 to 8 hrs by LC/MS/MS analysis; format: ADME, organism-based; conditions: in vivo, time 4-8 hrs
[2] = target: T1, Bromodomain-containing protein 4 (Homo sapiens, UniProt O60885); assay: Displacement of Biotin-tagged [Lys(5,8,12,16)Ac]H4(1 to 21) peptide from BRD4-BD2 (unknown origin) incubated for 3 hrs by HTRF based TR-FRET assay
[3] = Antitumor activity against human A375.S2 cells xenografted CAnN.Cg-Foxnlnu/CrlCrlj mouse model assessed as reduction in tumor growth at 60 mg/kg administered twice daily for 14 days relative to control; format: functional; parameters: scale not given: the % may be the effect or the level left; conditions: time 14 day
[4] = Stability in mouse liver microsomes assessed as intrinsic clearance measured per mg protein
[5] = target: T1, Bromodomain-containing protein 4; assay: Displacement of Biotin-tagged [Lys(5,8,12,16)Ac]H4(1 to 21) peptide from GST-tagged BRD4-BD1 (unknown origin) incubated for 3 hrs by HTRF based TR-FRET assay
[6] = target: Bromodomain-containing protein 3 (Homo sapiens, UniProt Q15059); assay: Displacement of Biotin-tagged [Lys(5,8,12,16)Ac]H4(1 to 21) peptide from GST-tagged BRD3-BD1 (unknown origin) incubated for 3 hrs by HTRF based TR-FRET assay
[7] = AUC (0 to 24 hrs) in Slc:ICR mouse at 1 mg/kg, po measured for 8 to 24 hrs by LC/MS/MS analysis; format: ADME, organism-based; parameters: dose 1 mg/kg, time upper 24 hrs, time lower 8 hrs, route po; conditions: in vivo
[8] = Volume of distribution in Slc:ICR mouse at 0.5 mg/kg, iv measured for 4 to 8 hrs by LC/MS/MS analysis; format: ADME, organism-based; conditions: in vivo, time 4-8 hrs
[9] = Apparent permeability of the compound across apical side to basolateral side in human Caco-2 cells incubated for 2 hrs by LC-MS/MS analysis
[10] = Antiproliferative activity against human A375.S2 cells assessed as inhibition of cell growth incubated for 72 hrs by WST-1 assay; format: functional, cell-based; conditions: A375-S2, 72 h
[11] = Toxicity in CAnN.Cg-Foxnlnu/CrlCrlj mouse xenografted with human A375.S2 cells assessed as body weight loss at 30 to 60 mg/kg administered twice daily for 14 days; format: organism-based; conditions: in vivo, 336 h, dose 30-60 mg/kg, time 14 day
[12] = target: Bromodomain testis-specific protein (Homo sapiens, UniProt Q58F21); assay: Displacement of Biotin-tagged [Lys(5,8,12,16)Ac]H4(1 to 21) peptide from GST-tagged BRDT-BD1 (unknown origin) incubated for 3 hrs by HTRF based TR-FRET assay
[13] = target: Bromodomain-containing protein 2 (Homo sapiens, UniProt P25440); assay: Displacement of Biotin-tagged [Lys(5,8,12,16)Ac]H4(1 to 21) peptide from GST-tagged BRD2-BD1 (unknown origin) incubated for 3 hrs by HTRF based TR-FRET assay
[14] = Total clearance in Slc:ICR mouse at 0.5 mg/kg, iv measured for 4 to 8 hrs by LC/MS/MS analysis; format: ADME, organism-based; conditions: in vivo, time 4-8 hrs
[15] = Oral bioavailability in Slc:ICR mouse at 1 mg/kg measured for 8 to 24 hrs by LC/MS/MS analysis; format: ADME, organism-based; conditions: in vivo, time 8-24 hrs
in vivo = conditions: Slc:ICR, mouse, po, 1 mg/kg
[16] = target: T1, Bromodomain-containing protein 4; assay: Inhibition of NanoLuc-tagged full length BRD4 (unknown origin) transfected in HEK293 cells coexpressing histone H4-halo-tagged fusion vector preincubated overnight followed by substrate addition and measured after 10 mins by NanoBRET assay; format: cell-based
[17] = Stability in human liver microsomes assessed as intrinsic clearance measured per mg protein
[18] = AUC (0 to 8 hrs) in Slc:ICR mouse at 1 mg/kg, po measured for 8 to 24 hrs by LC/MS/MS analysis; format: ADME, organism-based; parameters: time lower 8 hrs, dose 1 mg/kg, time upper 24 hrs, route po; conditions: in vivo

Bromodomain-containing protein 3, sequence (Q15059 whole entry): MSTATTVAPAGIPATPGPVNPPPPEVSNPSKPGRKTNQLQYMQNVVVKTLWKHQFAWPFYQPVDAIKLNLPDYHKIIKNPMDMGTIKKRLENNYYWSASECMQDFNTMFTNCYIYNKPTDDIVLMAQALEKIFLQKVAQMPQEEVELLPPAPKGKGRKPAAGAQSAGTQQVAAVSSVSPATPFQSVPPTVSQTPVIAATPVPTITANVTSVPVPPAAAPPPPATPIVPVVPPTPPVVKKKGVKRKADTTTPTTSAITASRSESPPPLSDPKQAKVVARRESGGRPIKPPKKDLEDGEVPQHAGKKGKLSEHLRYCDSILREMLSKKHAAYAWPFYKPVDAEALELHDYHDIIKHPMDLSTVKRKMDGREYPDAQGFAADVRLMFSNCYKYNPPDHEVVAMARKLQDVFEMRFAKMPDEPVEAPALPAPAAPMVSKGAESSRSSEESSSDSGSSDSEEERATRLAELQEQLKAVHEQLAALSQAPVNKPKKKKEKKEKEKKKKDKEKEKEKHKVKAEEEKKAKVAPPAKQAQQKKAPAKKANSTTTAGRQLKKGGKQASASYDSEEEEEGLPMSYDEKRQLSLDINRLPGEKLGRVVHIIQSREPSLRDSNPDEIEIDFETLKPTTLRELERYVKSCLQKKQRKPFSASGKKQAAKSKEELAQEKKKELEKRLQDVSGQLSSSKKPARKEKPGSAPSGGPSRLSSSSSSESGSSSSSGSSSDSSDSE
Bromodomain-containing protein 2, sequence (P25440 whole entry): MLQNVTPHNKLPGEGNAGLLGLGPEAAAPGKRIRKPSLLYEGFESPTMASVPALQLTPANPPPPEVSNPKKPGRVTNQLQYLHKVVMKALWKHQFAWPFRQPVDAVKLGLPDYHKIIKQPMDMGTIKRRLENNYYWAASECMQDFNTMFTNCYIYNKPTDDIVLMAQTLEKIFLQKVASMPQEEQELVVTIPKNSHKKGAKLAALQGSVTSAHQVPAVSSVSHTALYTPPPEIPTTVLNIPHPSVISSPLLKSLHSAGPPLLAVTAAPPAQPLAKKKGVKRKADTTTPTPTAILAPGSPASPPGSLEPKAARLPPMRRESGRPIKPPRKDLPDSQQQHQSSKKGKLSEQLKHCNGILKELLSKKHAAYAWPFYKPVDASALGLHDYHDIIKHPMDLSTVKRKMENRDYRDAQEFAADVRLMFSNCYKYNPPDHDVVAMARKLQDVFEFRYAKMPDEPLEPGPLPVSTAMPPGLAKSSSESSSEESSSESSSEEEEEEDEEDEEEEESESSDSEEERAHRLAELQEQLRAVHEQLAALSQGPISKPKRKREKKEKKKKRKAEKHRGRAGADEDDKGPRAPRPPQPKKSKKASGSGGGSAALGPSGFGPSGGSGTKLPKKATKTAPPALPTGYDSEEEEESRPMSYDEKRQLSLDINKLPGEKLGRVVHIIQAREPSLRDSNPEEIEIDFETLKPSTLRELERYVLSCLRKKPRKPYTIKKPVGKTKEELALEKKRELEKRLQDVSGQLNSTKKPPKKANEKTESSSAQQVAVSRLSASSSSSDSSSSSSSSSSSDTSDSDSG

Row | Structure (SMILES) | CLH [4] | IC50 [5] | Papp A→B at 2 h [9] | CLH [17] | further results
1 | Cc1cc(-c2cc3c4c(c2)n(Cc2ccccc2)c(=O)n4CCO3)cn(C)c1=O | 17 mL/min | 15 nM | 12 ×10⁻⁶ cm/s |  | half-life [1]: 4.1 h; IC50 [2]: 55 nM; Activity [3]: 41%; IC50 [6]: 25 nM; AUC(0-t) [7]: 2420 ng·h/mL; Vd [8]: 1.18 L/kg; IC50 [10]: 539 nM; Activity [11]: Non-Toxic; IC50 [12]: 68 nM; IC50 [13]: 19 nM; clearance [14]: 3.3 mL/min; bioavailability [15]: 49%; Cmax (in vivo): 299 ng/mL; IC50 [16]: 81 nM
2 | CCS(=O)(=O)c1cc(-c2cc(C)c(=O)n(C)c2)cc2c1[nH]c(=O)n2Cc1ccccc1 |  | 112 nM |  |  | 
3 | CCS(=O)(=O)Cc1cc(-c2cc(C)c(=O)n(C)c2)cc2c1n(C)c(=O)n2Cc1ccccc1 | 34 mL/min | 4.8 nM |  | 14 mL/min | 
4 | CCS(=O)(=O)Cc1cc(-c2cc(C)c(=O)n(C)c2)cc2c1[nH]c(=O)n2Cc1ccccc1 | 11 mL/min | 4.2 nM | 0.02 ×10⁻⁶ cm/s | 11 mL/min | 
5 | Cc1cc(-c2ccc3c(c2)n(Cc2ccccc2)c(=O)n3CC(C)C)cn(C)c1=O | 491 mL/min | 42 nM |  | 352 mL/min | 
6 | Cc1cc(-c2ccc3c(c2)N(Cc2ccccc2)C(=O)CN3)cn(C)c1=O |  | 122 nM |  |  | 
7 | CCS(=O)(=O)NCc1cc(-c2cc(C)c(=O)n(C)c2)cc2c1[nH]c(=O)n2Cc1ccccc1 | 66 mL/min | 12 nM | 0.11 ×10⁻⁶ cm/s | 43 mL/min | 
8 | CC[S+]([O-])c1cc(-c2cc(C)c(=O)n(C)c2)cc2c1[nH]c(=O)n2Cc1ccccc1 (centres undefined) |  | 157 nM |  |  | 
9 | CCS(=O)(=O)NCc1cc(-c2cc(C)c(=O)n(C)c2)cc2c1n(C)c(=O)n2Cc1ccccc1 | 53 mL/min | 39 nM | 0.03 ×10⁻⁶ cm/s | 37 mL/min | 
10 | CCS(=O)(=O)Nc1cc(-c2cc(C)c(=O)n(C)c2)cc2c1[nH]c(=O)n2Cc1ccccc1 | < 9.6 mL/min | 19 nM | 0.05 ×10⁻⁶ cm/s | < 9.6 mL/min | 
11 | COCCn1c(=O)n(Cc2ccccc2)c2cc(-c3cc(C)c(=O)n(C)c3)ccc21 |  | 45 nM |  |  | 

More lines, main results first:

Row | CLH [4] | IC50 [5] | Papp A→B at 2 h [9] | CLH [17] | Structure (SMILES) | further results
12 | 42 mL/min | 61 nM |  | 43 mL/min | Cc1cc(-c2ccc3cnn(Cc4ccccc4)c3c2)cn(C)c1=O | 
13 | 15 mL/min | 32 nM | 5.9 ×10⁻⁶ cm/s | 29 mL/min | Cc1cc(-c2ccc3[nH]c(=O)n(Cc4ccccc4)c3c2)cn(C)c1=O | AUC(0-t) [18]: 178 ng·h/mL; clearance [14]: 40 mL/min; bioavailability [15]: 70%; Cmax (in vivo): 37 ng/mL
14 | 38 mL/min | 25 nM | 14 ×10⁻⁶ cm/s | 27 mL/min | Cc1cc(-c2ccc3c(c2)n(Cc2ccccc2)c(=O)n3C(C)C)cn(C)c1=O | 
15 |  | 94 nM |  |  | Cc1cc(-c2ccc3ccn(Cc4ccccc4)c3c2)cn(C)c1=O | 
16 | 23 mL/min | 38 nM |  | 49 mL/min | Cc1cc(-c2ccc3nnn(Cc4ccccc4)c3c2)cn(C)c1=O | 
17 | 20 mL/min | 50 nM | 21 ×10⁻⁶ cm/s | 25 mL/min | Cc1cc(-c2ccc3c(c2)n(Cc2ccccc2)c(=O)n3C)cn(C)c1=O | 
18 | 36 mL/min |  |  | 65 mL/min | Cc1cc(-c2ccc3ncn(Cc4ccccc4)c3c2)cn(C)c1=O | Cmax (in vivo): < 1 ng/mL
